Two molecules from ChEMBL document CHEMBL4507276 (2021) can be followed below.

Test [1] has as its target Sodium-dependent dopamine transporter (Homo sapiens, UniProt Q01959). In words: GPCRScan assay: inhibition of DAT. Also noted: radioligand conc. used [nm] 3.6 – 16.0, parental cells stable HEK.
Test [2] has as its target Protein kinase C theta type (Homo sapiens) (UniProt Q04759). The following applies: Compound concentration 1000.0 nM.
Test [3] deals with Calcium/calmodulin-dependent protein kinase kinase 1 (Homo sapiens) (UniProt Q8N5S9). In words: CAMKK1 Invitrogen selectivity data (BI). The following applies: Compound concentration 3.0 uM.
Test [4] deals with Vasopressin V1a receptor (Homo sapiens) (UniProt P37288). Description: V1A/HUM Cerep selectivity data (BI). The settings on record: Compound concentration 20.0 uM.
The target of test [5] is Mu-type opioid receptor (Homo sapiens) (UniProt P35372). In words: MU/HU Eurofins-Panlabs selectivity data (BI). The following applies: Compound concentration 10.0 uM.
For another test, the species on record is Homo sapiens. In words: HIV-1/H Cerep selectivity data (BI). The following applies: Compound concentration 20.0 uM.
Test [6] deals with Casein kinase I isoform epsilon (Homo sapiens) (UniProt P49674). Description: CSNK1E Invitrogen selectivity data (BI). The settings on record: Compound concentration 3.0 uM.
The target of test [7] is T1, TGF-beta receptor type-1 (Homo sapiens) (UniProt P36897).
T1 sequence (whole entry): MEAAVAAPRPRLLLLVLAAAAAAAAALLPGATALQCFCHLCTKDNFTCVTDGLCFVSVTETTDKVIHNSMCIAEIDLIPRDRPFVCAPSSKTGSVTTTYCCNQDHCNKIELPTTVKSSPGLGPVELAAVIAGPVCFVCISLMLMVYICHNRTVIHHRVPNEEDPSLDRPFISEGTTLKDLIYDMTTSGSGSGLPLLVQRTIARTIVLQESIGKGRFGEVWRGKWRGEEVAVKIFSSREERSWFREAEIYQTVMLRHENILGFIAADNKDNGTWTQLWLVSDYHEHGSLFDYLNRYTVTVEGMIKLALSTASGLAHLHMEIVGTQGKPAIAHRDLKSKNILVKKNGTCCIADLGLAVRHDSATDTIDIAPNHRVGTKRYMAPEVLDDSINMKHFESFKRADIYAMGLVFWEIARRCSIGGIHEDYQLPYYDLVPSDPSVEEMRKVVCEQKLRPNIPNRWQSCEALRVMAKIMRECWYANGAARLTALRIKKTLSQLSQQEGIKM
Description: TGFBR1 Invitrogen selectivity data (BI). The settings on record: Compound concentration 3.0 uM.

Test [8] concerns the target Neuronal acetylcholine receptor; alpha4/beta2 (Homo sapiens) (UniProt P17787+P43681). Description: N_NEURO_A4B2 Cerep selectivity data (BI). The format is protein-complex assay. The settings on record: filed as agonist, Compound concentration 20.0 uM.
For test [9], the target named is Mitogen-activated protein kinase 14 (Homo sapiens) (UniProt Q16539). Description: MAPK14 Invitrogen selectivity data (BI). The settings on record: Compound concentration 3.0 uM.
The target of test [10] is Alpha-1D adrenergic receptor (Homo sapiens) (UniProt P25100). The settings on record: Compound concentration 10.0 uM.
In test [11] the target is Calcium/calmodulin-dependent protein kinase type II subunit alpha (Homo sapiens) (UniProt Q9UQM7). In words: CAMK2A Invitrogen selectivity data (BI). The settings on record: Compound concentration 3.0 uM.
Test [12] deals with Serine/threonine-protein kinase Nek4 (Homo sapiens) (UniProt P51957). In words: NEK4 Invitrogen selectivity data (BI). The settings on record: Compound concentration 3.0 uM.
Test [13] has as its target 5-hydroxytryptamine receptor 2B (Homo sapiens) (UniProt P41595). The settings on record: Compound concentration 10.0 uM.
Test [14] has as its target Ephrin type-A receptor 4 (Homo sapiens) (UniProt P54764). In words: EPHA4 Invitrogen selectivity data (BI). The following applies: Compound concentration 3.0 uM.
Test [15] addresses Phosphatidylinositol 4-phosphate 3-kinase C2 domain-containing subunit beta (Homo sapiens) (UniProt O00750). Description: PIK3C2B Invitrogen selectivity data (BI). The settings on record: Compound concentration 3.0 uM.
In test [16] the target is Vascular endothelial growth factor receptor 3 (Homo sapiens) (UniProt P35916). Description: FLT4 Invitrogen selectivity data (BI). The settings on record: Compound concentration 3.0 uM.
The test system of test [17] is Tyrosine-protein kinase ABL1 (Homo sapiens), P00519 [T315I]. Description: ABL1 T315I Invitrogen selectivity data (BI). The settings on record: Compound concentration 3.0 uM.
Test [18] deals with Melatonin receptor type 1A (Homo sapiens) (UniProt P48039). In words: MT1 (ML1A) Cerep selectivity data (BI). The settings on record: Compound concentration 20.0 uM.
Test [19] concerns the target Insulin receptor (Homo sapiens) (UniProt P06213). Description: INSR Invitrogen selectivity data (BI). The following applies: Compound concentration 3.0 uM.
For test [20], the target named is Dual specificity mitogen-activated protein kinase kinase 1 (Homo sapiens) (UniProt Q02750). Description: MAP2K1 Invitrogen selectivity data (BI). The following applies: Compound concentration 3.0 uM.
The target in test [21] is Tyrosine-protein kinase Fer (Homo sapiens) (UniProt P16591). Description: FER Invitrogen selectivity data (BI). The following applies: Compound concentration 3.0 uM.
The target in test [22] is Angiotensin-converting enzyme (Homo sapiens) (UniProt P12821). In words: ACE(HU) Cerep selectivity data (BI). The settings on record: Compound concentration 20.0 uM.
The target of test [23] is T2, Mitogen-activated protein kinase 13 (Homo sapiens) (UniProt O15264).
T2 sequence (whole entry): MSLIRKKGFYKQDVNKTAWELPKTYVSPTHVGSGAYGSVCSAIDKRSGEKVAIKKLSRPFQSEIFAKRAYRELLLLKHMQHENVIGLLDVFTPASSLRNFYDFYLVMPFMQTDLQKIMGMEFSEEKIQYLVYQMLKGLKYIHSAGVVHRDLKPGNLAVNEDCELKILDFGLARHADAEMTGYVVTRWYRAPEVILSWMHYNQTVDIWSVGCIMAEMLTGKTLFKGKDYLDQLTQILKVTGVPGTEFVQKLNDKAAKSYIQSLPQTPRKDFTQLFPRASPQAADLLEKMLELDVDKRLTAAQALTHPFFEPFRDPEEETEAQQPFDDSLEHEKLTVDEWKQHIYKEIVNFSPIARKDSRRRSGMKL
In words: MAPK13 Invitrogen selectivity data (BI). The following applies: Compound concentration 3.0 uM.

Test [24] has as its target Muscarinic acetylcholine receptor M3 (Homo sapiens) (UniProt P20309). In words: M3/HU Eurofins-Panlabs selectivity data (BI). The following applies: Compound concentration 10.0 uM.
The target of test [25] is Endothelin-1 receptor (Homo sapiens) (UniProt P25101). Description: ETA/H Cerep selectivity data (BI). The settings on record: Compound concentration 20.0 uM.
In test [26] the target is Tyrosine-protein kinase Lyn (Homo sapiens) (UniProt P07948). In words: LYN A Invitrogen selectivity data (BI). The settings on record: Compound concentration 3.0 uM.
In test [27] the target is Adenosine receptor A1 (Homo sapiens) (UniProt P30542). In words: A1H_AGON Cerep selectivity data (BI). The following applies: filed as agonist, Compound concentration 20.0 uM.
Adenosine receptor A1 (Homo sapiens), sequence (P30542 whole entry): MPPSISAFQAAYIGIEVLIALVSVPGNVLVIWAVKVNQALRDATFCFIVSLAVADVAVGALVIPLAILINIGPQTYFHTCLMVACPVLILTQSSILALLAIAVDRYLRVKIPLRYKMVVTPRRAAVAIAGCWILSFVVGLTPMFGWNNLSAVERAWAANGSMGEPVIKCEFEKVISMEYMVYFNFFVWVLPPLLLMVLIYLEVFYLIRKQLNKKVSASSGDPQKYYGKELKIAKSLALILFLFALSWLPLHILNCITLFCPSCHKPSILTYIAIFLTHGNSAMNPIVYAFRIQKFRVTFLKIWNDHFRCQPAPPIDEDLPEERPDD

Sodium-dependent dopamine transporter, sequence (Q01959 whole entry): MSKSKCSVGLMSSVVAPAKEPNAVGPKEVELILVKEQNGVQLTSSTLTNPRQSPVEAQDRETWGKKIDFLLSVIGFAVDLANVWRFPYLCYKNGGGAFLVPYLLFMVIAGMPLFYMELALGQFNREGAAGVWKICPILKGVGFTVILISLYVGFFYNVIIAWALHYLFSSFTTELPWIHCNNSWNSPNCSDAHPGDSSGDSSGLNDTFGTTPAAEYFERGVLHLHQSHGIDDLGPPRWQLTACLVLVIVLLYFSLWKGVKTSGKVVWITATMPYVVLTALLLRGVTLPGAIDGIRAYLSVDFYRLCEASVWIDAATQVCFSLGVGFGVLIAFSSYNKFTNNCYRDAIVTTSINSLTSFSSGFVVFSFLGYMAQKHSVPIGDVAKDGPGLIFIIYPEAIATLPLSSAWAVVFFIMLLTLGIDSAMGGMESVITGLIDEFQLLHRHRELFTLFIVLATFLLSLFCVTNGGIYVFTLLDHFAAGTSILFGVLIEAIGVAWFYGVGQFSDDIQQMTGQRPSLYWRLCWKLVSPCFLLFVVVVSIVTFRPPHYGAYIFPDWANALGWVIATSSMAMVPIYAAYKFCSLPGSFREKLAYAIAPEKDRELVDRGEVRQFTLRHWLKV
Tyrosine-protein kinase Fer (Homo sapiens), sequence (P16591 whole entry, looked up): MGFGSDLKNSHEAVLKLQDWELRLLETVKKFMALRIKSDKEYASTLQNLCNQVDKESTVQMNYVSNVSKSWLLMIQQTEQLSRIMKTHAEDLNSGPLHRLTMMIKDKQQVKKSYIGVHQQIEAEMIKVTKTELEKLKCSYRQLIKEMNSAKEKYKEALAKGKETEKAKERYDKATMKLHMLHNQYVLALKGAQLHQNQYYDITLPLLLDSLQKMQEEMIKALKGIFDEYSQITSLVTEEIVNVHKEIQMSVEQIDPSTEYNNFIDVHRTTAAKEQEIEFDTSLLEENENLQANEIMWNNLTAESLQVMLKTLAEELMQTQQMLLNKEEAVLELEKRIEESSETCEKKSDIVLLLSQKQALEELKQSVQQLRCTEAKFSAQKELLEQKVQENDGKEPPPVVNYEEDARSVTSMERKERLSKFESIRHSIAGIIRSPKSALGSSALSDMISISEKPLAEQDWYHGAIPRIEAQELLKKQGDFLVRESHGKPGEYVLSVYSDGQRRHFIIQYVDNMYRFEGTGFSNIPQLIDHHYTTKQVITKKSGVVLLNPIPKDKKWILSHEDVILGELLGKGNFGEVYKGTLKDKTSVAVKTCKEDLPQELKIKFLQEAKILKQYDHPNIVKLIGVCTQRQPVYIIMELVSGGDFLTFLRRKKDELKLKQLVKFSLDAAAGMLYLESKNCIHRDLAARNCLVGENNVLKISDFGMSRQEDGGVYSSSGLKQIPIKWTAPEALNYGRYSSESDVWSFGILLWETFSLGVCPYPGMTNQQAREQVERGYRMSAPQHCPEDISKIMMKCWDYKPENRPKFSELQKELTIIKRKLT
5-hydroxytryptamine receptor 2B (Homo sapiens), sequence (P41595 whole entry): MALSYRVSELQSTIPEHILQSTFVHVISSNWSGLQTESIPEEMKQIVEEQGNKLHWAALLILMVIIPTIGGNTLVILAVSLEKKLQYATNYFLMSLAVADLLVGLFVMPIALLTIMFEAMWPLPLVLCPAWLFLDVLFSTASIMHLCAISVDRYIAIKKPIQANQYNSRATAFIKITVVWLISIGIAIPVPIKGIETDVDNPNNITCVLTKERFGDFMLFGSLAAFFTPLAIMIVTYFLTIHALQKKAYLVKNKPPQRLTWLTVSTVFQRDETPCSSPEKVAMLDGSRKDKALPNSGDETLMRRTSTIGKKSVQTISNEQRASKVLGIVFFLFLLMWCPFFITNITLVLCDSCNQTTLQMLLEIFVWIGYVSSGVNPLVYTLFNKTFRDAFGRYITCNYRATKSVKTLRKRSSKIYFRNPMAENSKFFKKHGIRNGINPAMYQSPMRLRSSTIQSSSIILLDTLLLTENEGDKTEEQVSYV
Dual specificity mitogen-activated protein kinase kinase 1 (Homo sapiens), sequence (Q02750 whole entry): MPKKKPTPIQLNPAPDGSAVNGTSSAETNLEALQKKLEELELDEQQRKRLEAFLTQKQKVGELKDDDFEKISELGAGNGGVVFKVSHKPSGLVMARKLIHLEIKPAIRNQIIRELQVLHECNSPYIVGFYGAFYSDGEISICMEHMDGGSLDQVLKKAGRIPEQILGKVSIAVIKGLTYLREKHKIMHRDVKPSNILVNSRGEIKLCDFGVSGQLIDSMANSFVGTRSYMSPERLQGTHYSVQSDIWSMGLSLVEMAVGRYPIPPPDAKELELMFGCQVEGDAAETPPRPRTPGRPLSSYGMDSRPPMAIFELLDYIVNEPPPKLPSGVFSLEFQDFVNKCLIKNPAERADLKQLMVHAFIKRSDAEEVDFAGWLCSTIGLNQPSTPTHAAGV
Vasopressin V1a receptor (Homo sapiens), sequence (P37288 whole entry, looked up): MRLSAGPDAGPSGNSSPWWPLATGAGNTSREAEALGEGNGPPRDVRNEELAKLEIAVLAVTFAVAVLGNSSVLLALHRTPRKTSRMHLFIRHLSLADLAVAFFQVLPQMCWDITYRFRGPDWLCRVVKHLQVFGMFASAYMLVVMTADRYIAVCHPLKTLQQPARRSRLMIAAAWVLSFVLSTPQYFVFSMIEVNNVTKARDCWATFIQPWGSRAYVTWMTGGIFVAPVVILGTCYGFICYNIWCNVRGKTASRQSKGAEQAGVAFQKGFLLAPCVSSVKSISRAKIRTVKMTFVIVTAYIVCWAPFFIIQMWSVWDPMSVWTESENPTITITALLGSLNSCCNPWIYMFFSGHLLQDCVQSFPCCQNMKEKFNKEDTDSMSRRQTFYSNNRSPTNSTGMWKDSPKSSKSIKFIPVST
Vascular endothelial growth factor receptor 3 (Homo sapiens), sequence (P35916 whole entry): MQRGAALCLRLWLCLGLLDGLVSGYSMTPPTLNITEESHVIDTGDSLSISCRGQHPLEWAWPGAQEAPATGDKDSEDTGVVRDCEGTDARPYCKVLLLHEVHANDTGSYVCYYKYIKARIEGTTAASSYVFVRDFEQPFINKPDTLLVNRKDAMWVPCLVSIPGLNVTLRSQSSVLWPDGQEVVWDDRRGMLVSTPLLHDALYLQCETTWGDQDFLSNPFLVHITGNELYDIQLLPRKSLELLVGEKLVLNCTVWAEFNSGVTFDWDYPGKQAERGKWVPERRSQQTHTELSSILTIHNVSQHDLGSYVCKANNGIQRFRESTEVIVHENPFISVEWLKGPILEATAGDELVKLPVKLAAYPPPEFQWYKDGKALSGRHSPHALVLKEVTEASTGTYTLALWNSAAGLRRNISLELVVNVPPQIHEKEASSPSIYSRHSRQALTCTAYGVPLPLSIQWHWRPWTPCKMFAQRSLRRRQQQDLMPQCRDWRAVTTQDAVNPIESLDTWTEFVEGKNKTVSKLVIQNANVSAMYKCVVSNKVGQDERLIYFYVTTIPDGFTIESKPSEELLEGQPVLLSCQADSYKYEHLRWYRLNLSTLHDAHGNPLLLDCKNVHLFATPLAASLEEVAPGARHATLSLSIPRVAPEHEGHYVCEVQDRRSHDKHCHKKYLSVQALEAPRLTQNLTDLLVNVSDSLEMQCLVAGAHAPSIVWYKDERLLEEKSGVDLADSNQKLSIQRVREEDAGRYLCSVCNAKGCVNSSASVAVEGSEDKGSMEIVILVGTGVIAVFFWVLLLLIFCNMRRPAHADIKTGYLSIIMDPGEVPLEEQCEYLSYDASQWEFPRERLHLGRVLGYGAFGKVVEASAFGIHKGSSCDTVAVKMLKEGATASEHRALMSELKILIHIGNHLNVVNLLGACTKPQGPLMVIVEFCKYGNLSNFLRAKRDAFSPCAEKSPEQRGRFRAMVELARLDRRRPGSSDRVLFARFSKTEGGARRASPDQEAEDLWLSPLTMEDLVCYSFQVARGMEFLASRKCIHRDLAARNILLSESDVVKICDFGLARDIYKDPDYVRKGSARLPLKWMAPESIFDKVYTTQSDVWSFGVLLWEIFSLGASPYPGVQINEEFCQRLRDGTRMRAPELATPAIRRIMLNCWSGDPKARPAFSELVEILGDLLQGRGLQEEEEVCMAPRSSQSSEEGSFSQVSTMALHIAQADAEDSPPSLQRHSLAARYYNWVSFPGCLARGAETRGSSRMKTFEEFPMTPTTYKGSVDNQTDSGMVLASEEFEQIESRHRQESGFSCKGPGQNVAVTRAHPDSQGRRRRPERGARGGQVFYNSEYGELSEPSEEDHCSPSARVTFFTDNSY
Mu-type opioid receptor (Homo sapiens), sequence (P35372 whole entry): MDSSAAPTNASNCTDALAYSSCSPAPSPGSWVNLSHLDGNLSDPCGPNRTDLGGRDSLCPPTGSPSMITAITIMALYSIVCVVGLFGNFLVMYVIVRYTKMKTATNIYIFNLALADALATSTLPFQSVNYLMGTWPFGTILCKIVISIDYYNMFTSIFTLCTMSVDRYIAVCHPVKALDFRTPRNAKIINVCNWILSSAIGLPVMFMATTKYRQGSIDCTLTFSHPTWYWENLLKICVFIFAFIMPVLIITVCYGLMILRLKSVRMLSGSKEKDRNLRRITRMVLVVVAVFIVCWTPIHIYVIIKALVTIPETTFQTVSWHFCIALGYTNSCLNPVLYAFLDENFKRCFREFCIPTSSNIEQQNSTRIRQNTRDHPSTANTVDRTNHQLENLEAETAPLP

For `CN(C)C(=O)Cn1cc(-c2nc(C3(c4ccc(-c5cnc(N)nc5)cc4)CC3)no2)cn1` [BI 0153], the Ki is 855 nM in test [1] (read-out: Ki) and 794 nM in test [1] (read-out: pKi (converted)). Also, the residual activity in test [2] is 89%.
Regarding `CN(C)C(=O)Cn1cc(-c2nc([C@@](C)(c3ccc(-c4cnc(N)nc4)cc3)C3CC3)no2)cn1` [BI 665915], the residual activity in [3] is 102%; in test [4], 50%; in test [5], 112%; in the test filed under Homo sapiens, 100%; in test [6], 95%; in test [7], 96%. Further, the residual activity in [8] is 113%; in [9] it was 107%; in [11] it was 103%; in test [12], 97%; in [14] it was 95%; in [15], 108%. The residual activity in [16] is 69.5%; in [17], 83%; in test [18] it was 91%; in test [19] it was 100%; in test [20], 98%; in [21], 98.5%. In addition, the residual activity in [22] is 127%; in test [23] it was 96.5%; in [24], 105%; in test [25], 102%; in [26], 93%; in test [27], 81%. Further, the figures for the inhibition in [10] and in test [13] were -3.06% and -5.4%, respectively.
